Test results: patent publication US6855719B1, “Imidazo[1,2-A]pyridine and pyrazolo[2,3-A]pyridine derivatives” (AstraZeneca AB, priority 1999, dated 2005)

Molecular target: T1, CDK2/Cyclin E (Homo sapiens, UniProt P24941)
T1 construct: The open reading frames of CDK2 and Cyclin E were isolated by reverse transcriptase-PCR; made in house; host or cells: Sf21 (Spodoptera frugiperda) insect cells, baculovirus co-infection; GST-Rb substrate made in E. coli BL21 (DE3) pLysS
Assay: in vitro kinase assay (Scintillation Proximity Assay), incorporation of [γ-33-P]-ATP into GST-Rb
Assay type: biochemical
Details: CDK2/Cyclin E partially-purified enzyme, GST-Rb substrate, 0.2 μM ATP, 60 minutes room temperature; read-out: CDK2 inhibitory activity IC50
Procedure: The compounds were tested in an in vitro kinase assay in 96 well format using Scintillation Proximity Assay (SPA—obtained from Amersham) for measuring incorporation of [γ-33-P]-Adenosine Triphosphate into a test substrate (GST-Retinoblastoma protein; GST-Rb). In each well was placed the compound to be tested (diluted in DMSO and water to correct concentrations) and in control wells either roscovitine as an inhibitor control or DMSO as a […] control.
Approximately 0.2 μl of CDK2/Cyclin E partially-purified enzyme (amount dependent on enzyme activity) diluted in 25 μl incubation buffer was added to each well then 20 μl of GST-Rb/ATP/ATP33 mixture (containing 0.5 μg GST-Rb and 0.2 μM ATP and 0.14 μCi [γ-33-P]-Adenosine Triphosphate in incubation buffer), and the resulting mixture shaken gently, then incubated at room temperature for 60 minutes. […]
The plates were sealed with Topseal-S plate sealers, left for two hours then spun at 2500 rpm, 1124× g., for 5 minutes. The plates were read on a Topcount for 30 seconds per well. […]
The open reading frames of CDK2 and Cyclin E were isolated by reverse transcriptase-PCR using HeLa cell and activated T cell mRNA as a template and cloned into the insect expression vector pVL1393 (obtained from Invitrogen 1995 catalogue number. V1392-20). […]

IC50 | SMILES
190 nM | O=S(=O)(c1ccc(Nc2nccc(-c3cnc4ccccn34)n2)cc1)N1COCOC1 [Example 11, 2-[4-(3,5-Dioxapiperidin-1-yl)sulphonylanilino]-4-(imidazo[1,2a]pyrid-3-yl)pyrimidine]
170 nM | CCN(CC)CCOc1ccc(Nc2nccc(-c3cnc4ccccn34)n2)cc1 [Example 12, 2-[4-(2-Diethylaminoethoxy)anilino]-4-(imidazo[1,2a]pyrid-3-yl)pyrimidine]
